From patent US7186703B2, “Derivatives of branched-chain lipophilic molecules and uses thereof” (D-Pharm Ltd., priority 2000, dated 2007)
Where “and” joins values, the source holds several entries; their conditions need not be identical. Equal values may be shown once. Read-outs that look alike come from different tables or passages of the source.

Assays:
[1] = system: blood brain barrier (BBB); assay: BBB permeability to EB-albumin and Fluorescein in normal rat brains; assay type: in vivo; conditions: compounds at EC50 (Mannitol 25%); for % EB/g brain: control 0.04 ± 0.01; for Brain fluorescein uptake (% of serum F-Na level): control 0.3 ± 0.08; for Ratio F-Na/EB (mean of individual ratios): control 9.5 ± 1.6
Method in brief: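 In normal rats, Evans blue–albumin (70 kD) and fluorescein sodium (376 D) were infused into the external carotid artery over 30 s, with test compounds at their EC50 concentrations or vehicle. EB reported as percent of total per gram brain; fluorescein as percent of serum level.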

[2] = system: blood brain barrier (BBB); assay: BBB permeabilization in rats, Evans blue extravasation into brain; assay type: in vivo, Sprague-Dawley rats; conditions: for μg EB/g brain (at EC50): at EC50 (Mannitol at 25%); for MEC (minimal effective concentration): concentration giving 3 μg EB/g brain; for MEC: Table 8, sodium salt, in µM
[3] = system: U937 myeloid leukemia cell line; assay: MTT cytotoxicity, U937; assay type: cell-based, human; conditions: U937, three days, read-out: EC50 (50% reduction in cell viability)
Procedure: The cytotoxic activity of various phospho-derivatives of branched-chain fatty acids (DP-BFAs) was assayed in vitro in cell cultures that include normal and malignant cell types. The following cell systems were used: • Primary fibroblasts (human) • Normal bone marrow (BM) cells (mouse) • Primary bronchial epithelial cells (human, from Clonetics, cat. no. CC-2541) • Caco-2—colon cancer cell line (human, ATTC, HTB-37) • C6 glioma cell line (rat, ATCC, CRL-2199) • Neuro2a—neuroblastoma cell line (mouse, ATCC, CCL-131) • SKBR-3—breast cancer cell line (human, ATTC, HTB-30) • HL60—myeloid leukemia cell line (human, ATCC, CCL-240) • U937—myeloid leukemia cell line (human)
Cells were seeded in a microtiter plate in MEM containing 2 mM L-glutamine, 100 units/ml penicillin, 100 ug/ml streptomycin and 10% FCS at 37° C. The cultured cells were incubated, during their linear growth phase in the absence (control group) or presence of various DP-BFAs as indicated. The final concentrations of the tested DP-BFAs ranged from 1.5 to 200 microMolars. At the end of the incubation period, which was five days for the bone marrow cells and three days for all the other cell lines, the cytotoxic effect of the added P-BFA on the cells was estimated by using the colorimetric MTT assay. The MTT assay (Mosmann (1983) J. Immunol Methods 65: 55–63) measures mitochondrial reductase activity and serves for quantitative assessment of cellular viability. Drug concentration that causes 50% reduction in cell viability in comparison to the control group, is defined as EC50. The EC50 values of the tested DP-BFA compounds were calculated from dose response curves established for each of the different assayed cell lines.
Each EC50 value is an average of EC50 values derived from 1–5 independent experiments.

[4] = assay type: in vivo; conditions: rats, sodium salt; for LC (minimal concentration that caused death): i.a., viability monitored 24 hours
Procedure: DP-BFA molecules were evaluated for safety and toxicity. Increasing doses of the tested compounds were administered intra-arterially (i.a.) into rats following the protocol described above in Example 17. Animal viability was monitored for 24 hours to evaluate lethal concentrations (LC). LC is defined as the minimal concentration that caused death.
Safety index is defined as the ratio between the lethal dose (LC) and the minimal effective concentration (MEC), wherein MEC corresponds to a calculated concentration of the tested compound that elicits accumulation of three times the amount of Evans blue accumulated in control animals treated with vehicle only, i.e. total accumulation of 3 μg EB. The higher the LC/MEC ratio is, the higher the safety index.

[5] = Table 6, rat brains, Evans blue extravasation, read-out: EQ50 (the source's name)

Molecule | % EB/g brain [1] | Brain fluorescein uptake (% of serum F-Na level) [1] | Ratio F-Na/EB (mean of individual ratios) [1] | μg EB/g brain (at EC50) ([2]; Table 6) | MEC (minimal effective concentration) ([2]; Table 6) | EC50 [2, 5] | EC50 [3] | LC (minimal concentration that caused death) [4] | Safety LC/MEC [4] | MEC [2] | EC50 ([3]; Homo sapiens, U-937, 72 h) | permeabilization of the BBB (FIG. 1, in words) ([2]; Evans blue extravasation in rat brain, 3,n-type BFAs) | MEC (minimal effective concentration) ([2]; Table 5) | EC50 ([2]; Table 5, rat brain, intracarotid infusion, read-out: EC50 (Evans Blue extravasation))
CCCCCCCCCCCCC(CCC)C(=O)OCCOCCOP(=O)([O-])[O-].[Na+].[Na+] (stereo not shown) [3,12-DEG-PO4Na2, 2-[2′-(2″-Propyltetradecanoyloxy)-ethoxy]ethyl Disodium Phosphate] | 1.4 ± 0.2% | 9.0 ± 1.4 % of the F—Na level in the ser | 9.0 ± 1.2 | 18 μg EB/g brain and 18 ± 3 μg EB/g brain | 3.3 µM and 3.3 ± 0.5 µM | 20 µM | 25 µM |  |  |  |  |  |  | 
CCCCCCCCCCCCC(CCC)C(=O)OCCOP(=O)([O-])OCC[N+](C)(C)C (stereo not shown) [3,12-MEG-PC, 2-(2′-Propyltetradecanoyloxy)ethylphosphocholine] | 0.9 ± 0.2% | 5.2 ± 0.8 % of the F—Na level in the ser | 6.9 ± 0.1 | 15 ± 2 μg EB/g brain | 10 ± 1 µM | 19.5 ± 1.5 µM |  | 15 ± 2 µM | 1.5 | 10 ± 1 | 9 µM |  |  | 
CCCCCCCCCCCCC(CCC)OP(=O)([O-])OCC[N+](C)(C)C (stereo not shown) [3,12-PC, 4-Hexadecanyl phosphocholine] | 0.8 ± 0.1% | 3.0 ± 0.5 % of the F—Na level in the ser | 7.8 ± 1.3 | 10 ± 1 μg EB/g brain | 23 ± 4 µM | 76 ± 14 µM |  | 80 ± 16 µM | 3.5 | 23 ± 4 |  |  |  | 
2-(4′-Hexadecanoyloxy)ethoxyethyl phosphate [3,12-DEG-PO4] |  |  | around 9 |  |  |  |  | 30 ± 5 µM |  | 3.0 ± 0.5 |  |  |  | 
CCCCCCCCCCCCC(CCC)C(=O)[O-].[Na+] (stereo not shown) [3,12-Na, reference compound] | 1.8 ± 0.2% | 6.4 ± 1.1 % of the F—Na level in the ser | 4.9 and 4.9 ± 0.9 |  |  |  | 68 µM | 40 ± 10 µM | 6.1 | 6.5 ± 0.7 |  | active | 6.5 ± 0.7 | 20 ± 3 µM
CCCCCCCCCCCCC(CCC)C(=O)OCCOCCOP(=O)([O-])OCC[N+](C)(C)C (stereo not shown) [3,12-DEG-PC, 2-(2′-Propyltetradecanoyloxy)ethoxyethylphosphocholine] | 0.6 ± 0.1% | 2.9 ± 0.5 % of the F—Na level in the ser | 6.8 ± 0.8 | 14 ± 2 μg EB/g brain | 15 ± 2 µM | 70 ± 12 µM |  | 300 ± 60 µM | 20 | 15 ± 2 | 6 µM |  |  | 
